Measurements published in ChEMBL document CHEMBL1201862, “PubChem BioAssay data set” (2004).
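Growth conditions: 96-well plates. Treatment: test compound, 48 hours, 5 concentrations. Analysis: linear interpolation between bracketing concentrations; unreached endpoints set to highest concentration. Here, GI50 denotes the concentration required for 50% inhibition of growth.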 The source made the active and inactive calls. Cut-off read from the data, not from the text of the source: active = GI50 up to about 1.1 µM and inactive = higher.

Key:
Test in all cases: inhibition of tumour cell growth, NCI panel, 48 h
A549 = system: A549
K562 = system: K562
TK-10 = system: TK-10
SK-MEL-28 = system: SK-MEL-28
HCC 2998 = system: HCC 2998
IGROV-1 = system: IGROV-1
SW-620 = system: SW-620
LOX IMVI = system: LOX IMVI
Malme-3M = system: Malme-3M
DMS-114 = system: DMS-114
M14 = system: M14
NCI-H522 = system: NCI-H522
OVCAR-8 = system: OVCAR-8
NCI-H23 = system: NCI-H23
XF498 = system: XF498
HL-60 = system: HL-60
OVCAR-5 = system: OVCAR-5
NCI-H460 = system: NCI-H460
OVCAR-3 = system: OVCAR-3
SK-OV-3 = system: SK-OV-3
SNB-75 = system: SNB-75
UO-31 = system: UO-31
UACC-257 = system: UACC-257
SF-295 = system: SF-295
SN12C = system: SN12C
A498 = system: A498
NCI-H226 = system: NCI-H226
HOP-92 = system: HOP-92
U-251 = system: U-251
SNB-78 = system: SNB-78
SK-MEL-5 = system: SK-MEL-5
SNB-19 = system: SNB-19
KM-20L2 = system: KM-20L2
OVCAR-4 = system: OVCAR-4
DLD-1 = system: DLD-1
ACHN = system: ACHN
HT-29 = system: HT-29
EKVX = system: EKVX
CCRF-CEM = system: CCRF-CEM
HOP-62 = system: HOP-62
MOLT-4 = system: MOLT-4
M19-MEL = system: M19-MEL
RXF 393 = system: RXF 393
COLO 205 = system: COLO 205
KM12 = system: KM12
LXFL 529 = system: LXFL 529
SF-539 = system: SF-539
786-0 = system: 786-0
CAKI-1 = system: CAKI-1
SK-MEL-2 = system: SK-MEL-2
RPMI-8226 = system: RPMI-8226
SF-268 = system: SF-268
UACC-62 = system: UACC-62
DMS-273 = system: DMS-273
HCT-15 = system: HCT-15
HCT-116 = system: HCT-116
SR = system: SR
HOP-18 = system: HOP-18

`COc1cc(C2C(C(=O)Nc3ccc(Cl)c(Cl)c3)=C(C)NC(C)=C2C(=O)Nc2ccc(Cl)c(Cl)c2)ccc1O` was tested, and the GI50 (A549) was 12.8 µM (inactive), the GI50 (K562) was 6.68 µM (inactive) and the GI50 (TK-10) was 19.1 µM (inactive). For the same compound, the GI50 (SK-MEL-28) was 13.9 µM (inactive), the GI50 (HCC 2998) was 11.4 µM (inactive) and the GI50 (IGROV-1) was 14.2 µM (inactive). The GI50 (SW-620) was 12.3 µM (inactive), the GI50 (LOX IMVI) was 11.4 µM (inactive) and the GI50 (Malme-3M) was 12.6 µM (inactive). The GI50 (DMS-114) was 6.49 µM (inactive), the GI50 (M14) was 12.6 µM (inactive) and the GI50 (NCI-H522) was 3.65 µM (inactive). The GI50 (OVCAR-8) was 13.9 µM (inactive), the GI50 (NCI-H23) was 12.5 µM (inactive) and the GI50 (XF498) was 17.4 µM (inactive). For the same compound, the GI50 (HL-60) was 4.38 µM (inactive), the GI50 (OVCAR-5) was 19.4 µM (inactive) and the GI50 (NCI-H460) was 12.8 µM (inactive). For the same compound, the GI50 (OVCAR-3) was 9.82 µM (inactive), the GI50 (SK-OV-3) was 14.8 µM (inactive) and the GI50 (SNB-75) was 10.3 µM (inactive). The GI50 (UO-31) was 12 µM (inactive), the GI50 (UACC-257) was 13.8 µM (inactive) and the GI50 (SF-295) was 18.4 µM (inactive). The GI50 (SN12C) was 12.3 µM (inactive), the GI50 (A498) was 12.2 µM (inactive) and the GI50 (NCI-H226) was 16.7 µM (inactive). For the same compound, the GI50 (HOP-92) was 2.6 µM (inactive), the GI50 (U-251) was 13.9 µM (inactive) and the GI50 (SNB-78) was 14.9 µM (inactive). For the same compound, the GI50 (SK-MEL-5) was 12.2 µM (inactive), the GI50 (SNB-19) was 12.3 µM (inactive) and the GI50 (KM-20L2) was 19.8 µM (inactive). For the same compound, the GI50 (OVCAR-4) was 5.3 µM (inactive), the GI50 (DLD-1) was 10.6 µM (inactive) and the GI50 (ACHN) was 10.8 µM (inactive). The GI50 (HT-29) was 15.1 µM (inactive), the GI50 (EKVX) was 10.3 µM (inactive) and the GI50 (CCRF-CEM) was 3.26 µM (inactive). The GI50 (HOP-62) was 11 µM (inactive), the GI50 (MOLT-4) was 4.31 µM (inactive) and the GI50 (M19-MEL) was 14.5 µM (inactive). For the same compound, the GI50 (RXF 393) was 2.64 µM (inactive), the GI50 (COLO 205) was 13.3 µM (inactive) and the GI50 (KM12) was 11.7 µM (inactive). For the same compound, the GI50 (LXFL 529) was 9.27 µM (inactive), the GI50 (SF-539) was 10.2 µM (inactive) and the GI50 (786-0) was 12.7 µM (inactive). For the same compound, the GI50 (CAKI-1) was 14 µM (inactive), the GI50 (SK-MEL-2) was 8.17 µM (inactive) and the GI50 (RPMI-8226) was 3.89 µM (inactive). The GI50 (SF-268) was 11.7 µM (inactive).
`NS(=O)(=O)c1ccc(NC(=O)CC(=O)Nc2ccc(S(N)(=O)=O)cc2)cc1` was tested, and the GI50 (A549) was > 100 µM (inactive), the GI50 (K562) was > 100 µM (inactive) and the GI50 (TK-10) was > 100 µM (inactive). The GI50 (SK-MEL-28) was > 100 µM (inactive), the GI50 (HCC 2998) was > 100 µM (inactive) and the GI50 (IGROV-1) was > 100 µM (inactive). The GI50 (SW-620) was > 100 µM (inactive), the GI50 (UACC-62) was > 100 µM (inactive) and the GI50 (LOX IMVI) was > 100 µM (inactive). For the same compound, the GI50 (Malme-3M) was > 100 µM (inactive), the GI50 (DMS-114) was > 100 µM (inactive) and the GI50 (M14) was > 100 µM (inactive). The GI50 (DMS-273) was > 100 µM (inactive), the GI50 (NCI-H522) was > 100 µM (inactive) and the GI50 (OVCAR-8) was > 100 µM (inactive). The GI50 (NCI-H23) was > 100 µM (inactive), the GI50 (HL-60) was > 100 µM (inactive) and the GI50 (OVCAR-5) was > 100 µM (inactive). The GI50 (OVCAR-3) was > 100 µM (inactive), the GI50 (SK-OV-3) was > 100 µM (inactive) and the GI50 (HCT-15) was over 100 µM. The GI50 (SNB-75) was > 100 µM (inactive), the GI50 (HCT-116) was > 100 µM (inactive) and the GI50 (UO-31) was > 100 µM (inactive). For the same compound, the GI50 (UACC-257) was > 100 µM (inactive), the GI50 (SF-295) was > 100 µM (inactive) and the GI50 (SN12C) was > 100 µM (inactive). The GI50 (A498) was > 100 µM (inactive), the GI50 (SR) was > 100 µM (inactive) and the GI50 (NCI-H226) was > 100 µM (inactive). For the same compound, the GI50 (HOP-92) was > 100 µM (inactive), the GI50 (U-251) was > 100 µM (inactive) and the GI50 (SNB-78) was > 100 µM (inactive). The GI50 (SK-MEL-5) was > 100 µM (inactive), the GI50 (SNB-19) was > 100 µM (inactive) and the GI50 (KM-20L2) was > 100 µM (inactive). For the same compound, the GI50 (OVCAR-4) was > 100 µM (inactive), the GI50 (DLD-1) was > 100 µM (inactive) and the GI50 (ACHN) was > 100 µM (inactive). The GI50 (HT-29) was > 100 µM (inactive), the GI50 (EKVX) was > 100 µM (inactive) and the GI50 (CCRF-CEM) was > 100 µM (inactive). The GI50 (HOP-62) was > 100 µM (inactive), the GI50 (MOLT-4) was > 100 µM (inactive) and the GI50 (HOP-18) was > 100 µM (inactive). For the same compound, the GI50 (M19-MEL) was > 100 µM (inactive), the GI50 (COLO 205) was > 100 µM (inactive) and the GI50 (LXFL 529) was > 100 µM (inactive). The GI50 (SF-539) was > 100 µM (inactive), the GI50 (786-0) was > 100 µM (inactive) and the GI50 (CAKI-1) was > 100 µM (inactive). For the same compound, the GI50 (SK-MEL-2) was > 100 µM (inactive), the GI50 (RPMI-8226) was > 100 µM (inactive) and the GI50 (SF-268) was > 100 µM (inactive).
